Assay results: ChEMBL document CHEMBL5465560, “Selectivity Literature for EUbOPEN Chemogenomic Library” (2024)

Legend:
[1] = target: T1, Dual specificity mitogen-activated protein kinase kinase 4 (Homo sapiens) (UniProt P45985); assay: Selectivity interaction (Upstate Kinase Profiler service (Millipore)) EUB0000056c MAP2K4; settings: at 1 µM
T1 sequence (whole entry): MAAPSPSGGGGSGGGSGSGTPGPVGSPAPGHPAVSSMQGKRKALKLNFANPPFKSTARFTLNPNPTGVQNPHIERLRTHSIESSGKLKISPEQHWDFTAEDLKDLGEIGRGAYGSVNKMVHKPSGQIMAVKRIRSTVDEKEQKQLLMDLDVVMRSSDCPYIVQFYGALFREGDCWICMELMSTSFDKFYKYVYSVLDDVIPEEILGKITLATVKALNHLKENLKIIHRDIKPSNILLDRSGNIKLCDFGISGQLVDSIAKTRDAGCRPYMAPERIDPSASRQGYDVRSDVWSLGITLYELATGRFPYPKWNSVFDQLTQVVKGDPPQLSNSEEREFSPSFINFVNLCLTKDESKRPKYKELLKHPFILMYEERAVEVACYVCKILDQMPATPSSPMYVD

[2] = target: T2, Non-receptor tyrosine-protein kinase TNK1 (Homo sapiens) (UniProt Q13470); settings: at 10 µM
T2 sequence (whole entry): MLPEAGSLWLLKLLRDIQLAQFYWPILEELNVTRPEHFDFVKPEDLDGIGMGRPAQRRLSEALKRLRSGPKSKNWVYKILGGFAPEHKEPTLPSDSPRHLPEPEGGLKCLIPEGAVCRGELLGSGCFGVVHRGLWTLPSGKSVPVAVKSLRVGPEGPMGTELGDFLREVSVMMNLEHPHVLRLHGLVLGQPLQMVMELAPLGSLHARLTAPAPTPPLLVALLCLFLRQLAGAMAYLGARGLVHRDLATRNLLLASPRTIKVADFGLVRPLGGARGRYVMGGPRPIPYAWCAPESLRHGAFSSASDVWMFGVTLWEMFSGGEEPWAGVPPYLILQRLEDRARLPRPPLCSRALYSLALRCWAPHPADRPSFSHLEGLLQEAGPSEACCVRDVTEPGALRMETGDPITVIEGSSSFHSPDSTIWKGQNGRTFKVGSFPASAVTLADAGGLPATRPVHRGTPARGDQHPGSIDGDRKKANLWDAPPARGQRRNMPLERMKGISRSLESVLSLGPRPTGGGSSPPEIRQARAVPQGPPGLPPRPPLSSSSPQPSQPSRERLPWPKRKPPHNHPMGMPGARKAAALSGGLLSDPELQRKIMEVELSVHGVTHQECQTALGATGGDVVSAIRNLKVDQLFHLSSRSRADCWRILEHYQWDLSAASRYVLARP

[3] = target: T3, Cyclin-dependent kinase 11A (Homo sapiens) (UniProt Q9UQ88); assay: Selectivity interaction (KinomeScan (DiscoverX)) EUB0000045b CDK11A; settings: at 10 µM
T3 sequence (whole entry): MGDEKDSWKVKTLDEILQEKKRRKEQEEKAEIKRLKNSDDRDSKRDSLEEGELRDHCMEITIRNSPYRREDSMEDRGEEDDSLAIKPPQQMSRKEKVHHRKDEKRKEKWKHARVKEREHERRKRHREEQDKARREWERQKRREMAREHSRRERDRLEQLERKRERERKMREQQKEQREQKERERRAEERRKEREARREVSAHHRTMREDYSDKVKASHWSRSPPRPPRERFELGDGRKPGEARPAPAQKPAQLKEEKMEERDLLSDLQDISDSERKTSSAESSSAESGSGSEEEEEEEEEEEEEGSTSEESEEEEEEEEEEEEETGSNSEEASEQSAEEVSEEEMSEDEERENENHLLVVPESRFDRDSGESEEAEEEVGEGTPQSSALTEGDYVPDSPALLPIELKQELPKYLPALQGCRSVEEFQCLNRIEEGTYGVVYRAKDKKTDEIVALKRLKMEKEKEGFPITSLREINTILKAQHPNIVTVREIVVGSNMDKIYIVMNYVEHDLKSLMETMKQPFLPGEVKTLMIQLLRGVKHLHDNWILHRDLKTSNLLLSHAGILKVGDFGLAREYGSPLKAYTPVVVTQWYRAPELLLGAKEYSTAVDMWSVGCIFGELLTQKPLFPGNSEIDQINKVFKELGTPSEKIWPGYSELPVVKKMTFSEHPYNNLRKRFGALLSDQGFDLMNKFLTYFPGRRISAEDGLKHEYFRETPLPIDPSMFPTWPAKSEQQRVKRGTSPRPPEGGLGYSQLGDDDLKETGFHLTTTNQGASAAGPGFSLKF

[4] = target: Mitogen-activated protein kinase 14 (Homo sapiens, UniProt Q16539); assay: Selectivity interaction (KinomeScan (DiscoverX)) EUB0000092b MAPK14; settings: at 10 µM
[5] = target: Activin receptor type-1-like (Homo sapiens) (UniProt P37023); settings: at 10 µM
[6] = target: T4, Phosphatidylinositol 5-phosphate 4-kinase type-2 gamma (Homo sapiens) (UniProt Q8TBX8); assay: Selectivity interaction (ActivX KiNativ screen (ex vivo kinase selectivity in human PBMCs)) EUB0001619a PIP4K2C; type: cell-based; settings: PBMC, at 1 µM
T4 sequence (whole entry): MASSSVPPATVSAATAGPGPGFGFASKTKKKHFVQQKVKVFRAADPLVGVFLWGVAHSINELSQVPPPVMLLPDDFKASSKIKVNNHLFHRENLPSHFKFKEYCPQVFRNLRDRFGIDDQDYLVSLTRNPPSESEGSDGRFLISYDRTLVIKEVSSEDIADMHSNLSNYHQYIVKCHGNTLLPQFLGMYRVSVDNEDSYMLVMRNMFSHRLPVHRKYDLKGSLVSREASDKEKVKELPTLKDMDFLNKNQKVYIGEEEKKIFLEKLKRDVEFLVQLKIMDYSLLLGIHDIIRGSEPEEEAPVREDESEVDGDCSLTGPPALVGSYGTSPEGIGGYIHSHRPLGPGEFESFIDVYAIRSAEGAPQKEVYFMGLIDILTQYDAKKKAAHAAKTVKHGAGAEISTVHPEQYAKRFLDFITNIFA

Activin receptor type-1-like (Homo sapiens), sequence (P37023 whole entry): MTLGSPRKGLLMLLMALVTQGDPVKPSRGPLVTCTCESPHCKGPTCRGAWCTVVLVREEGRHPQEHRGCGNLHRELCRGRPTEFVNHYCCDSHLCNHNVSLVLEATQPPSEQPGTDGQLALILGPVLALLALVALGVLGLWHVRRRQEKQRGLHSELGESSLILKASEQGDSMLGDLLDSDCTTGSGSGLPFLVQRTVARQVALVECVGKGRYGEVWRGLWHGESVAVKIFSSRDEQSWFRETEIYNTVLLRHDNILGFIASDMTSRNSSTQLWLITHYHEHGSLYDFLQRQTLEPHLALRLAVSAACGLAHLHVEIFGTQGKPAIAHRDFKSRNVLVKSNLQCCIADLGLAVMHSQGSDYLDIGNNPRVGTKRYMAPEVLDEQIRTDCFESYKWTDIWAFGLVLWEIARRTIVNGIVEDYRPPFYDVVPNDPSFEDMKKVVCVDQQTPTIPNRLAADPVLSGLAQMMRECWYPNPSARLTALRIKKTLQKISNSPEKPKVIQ
Mitogen-activated protein kinase 14, sequence (Q16539 whole entry): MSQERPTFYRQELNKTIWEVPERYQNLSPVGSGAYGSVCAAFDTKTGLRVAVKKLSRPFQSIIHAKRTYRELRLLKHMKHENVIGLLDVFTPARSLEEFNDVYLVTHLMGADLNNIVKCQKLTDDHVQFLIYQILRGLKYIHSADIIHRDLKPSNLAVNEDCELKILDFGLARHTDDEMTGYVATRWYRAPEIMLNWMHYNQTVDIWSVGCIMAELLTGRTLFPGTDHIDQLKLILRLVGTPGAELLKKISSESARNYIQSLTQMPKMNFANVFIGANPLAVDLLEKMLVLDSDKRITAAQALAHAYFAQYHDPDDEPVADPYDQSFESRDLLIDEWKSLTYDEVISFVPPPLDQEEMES

Q: How did the % of inhibition [1] turn out when Cc1ccc(-c2ccc3c(ccc4sc5c(c43)NC[C@@H](C)NC5=O)n2)cn1 was run?
A: 19%

Q: With CCN(CC)CCCCNc1ncc2cc(-c3cc(OC)cc(OC)c3)c(NC(=O)NC(C)(C)C)nc2n1 as the molecule, how does the % of control [2] read?
A: 100%

Q: Which % of control [3] does the source give for C=CC(=O)Nc1cc(-n2c(=O)ccc3cnc4ccc(-c5ccc(NS(C)(=O)=O)cc5)cc4c32)ccc1C here?
A: 100%

Q: How did the % of control [4] turn out when CCC(=O)N1CCN(c2ccc(-n3c(=O)ccc4cnc5ccc(-c6cnc7ccccc7c6)cc5c43)cc2C(F)(F)F)CC1 was run?
A: 90%

Q: Which % of control [5] does the source give for Cc1cc([C@@H](C)Nc2ccccc2C(=O)O)c2nc(N3CCOCC3)cc(=O)n2c1 [AZD-6482] here?
A: 89%

Q: For N#Cc1cccc(-c2c[nH]c3ncnc(N4CCOCC4)c23)c1, which % of inhibition [6] is on record?
A: 58%
